Values after ≈ are worked out from the molar mass of the structure shown. Like-named read-outs stand apart in the source and are kept apart here.
What was measured:
S. aureus ATCC 12598 = assay: Antibacterial activity, pre-exposure; format: cell-based, Staphylococcus aureus; settings: for Average inhibition %, biofilms viability / Average inhibition %, planktonic cells viability / inhibition at 5 µM / inhibition at 10 µM / inhibition at 15 µM / inhibition at 25 µM: S. aureus ATCC 12598, pre-exposure, ± SD; for inhibition at 5 µM / inhibition at 10 µM / inhibition at 15 µM / inhibition at 25 µM / MIC: Staphylococcus aureus, ATCC12598; for MIC: pre-exposure, 18 h, read-out: MIC S. aureus ATCC 12598
Protocol: (§1) The antimicrobial activity was assessed in a similar way for the initial screening and the dose–response evaluation against different bacterial strains. With the exception of the post-exposure experiment, the compounds were added to the wells along with the bacteria to test the ability of compounds to prevent bacterial growth and biofilm formation (pre-exposure). The compounds were diluted in DMSO and plated directly in 96-well plates before adding the bacterial culture, and plates were incubated for 18 h under aerobic conditions at 37 °C with shaking (220 rpm). The antibacterial activity of the compounds was assessed on planktonic cells and biofilms separately using two different measurements for each: optical density (turbidity) and resazurin reduction (viability) on planktonic cells and resazurin followed by a crystal violet staining assay (total biomass) on biofilms, as described in the following sections.
(§2) The resazurin staining was performed according to the protocol previously optimized with a few modifications.[46] Briefly, the planktonic solution was first transferred into a new 96-well plate and the OD of the planktonic solution was measured using a Varioskan LUX Multimode microplate reader (Thermo Scientific, Vantaa, Finland). Then, 10 μL of a 400 μM resazurin (R7017, Sigma-Aldrich, St. Louis, MO) diluted in phosphate-buffered saline (PBS) (Thermo Fisher Scientific, MA) was added to the wells (for a final resazurin concentration of 20 μM). The plate was incubated in the dark with shaking (220 rpm) for about 3–10 min at room temperature with S. aureus and A. baumannii (until the bacteria controls turned pink) or for 20 min at 37 °C with P. aeruginosa. Fluorescence was measured at λex = 560 nm and λem = 590 nm using the top optics of the Varioskan LUX Multimode microplate reader. The planktonic plate was then discarded. The original challenge plate containing the biofilms was washed once with PBS, and 200 μL of a 20 μM resazurin solution was added to the wells. The plate was incubated in the dark at 37 °C with shaking (220 rpm) for 30 min with S. aureus, 60 min with A. baumannii, and 90 min with P. aeruginosa. Fluorescence was measured as described for the planktonic solution. The biofilms were next treated with crystal violet staining.
(§3) After removing the resazurin solution from the plate, biofilms were fixed with ethanol 100% for 15 min at room temperature. Ethanol was then removed, and the biofilms were left to air-dry completely at RT. Crystal violet, diluted to 1:100 in deionized water from the 2.3% commercial solution (HT90132, Sigma-Aldrich, St. Louis, MO), was added to the wells and, after a 5 min incubation with the dye, the biofilms were washed twice with deionized water and left to air-dry for about 10 min. The dye was solubilized in ethanol 100% for 1 h, and absorbance was measured at 595 nm using a Multiskan Sky microplate spectrophotometer (Thermo Scientific, Vantaa, Finland).

S. aureus P2 = assay: Antibacterial activity, pre-exposure; format: cell-based, Staphylococcus aureus; settings: for Average inhibition %, biofilms viability / Average inhibition %, planktonic cells viability / inhibition at 5 µM / inhibition at 10 µM / inhibition at 15 µM / inhibition at 25 µM: S. aureus P2, pre-exposure, ± SD; for MIC / inhibition at 5 µM / inhibition at 10 µM / inhibition at 15 µM / inhibition at 25 µM: Staphylococcus aureus; for MIC: P2, pre-exposure, 18 h
Protocol: as §1, §2, §3

[1] = 5 µM, read-out: Average inhibition %, biofilms biomass
[2] = 5 µM, read-out: Average inhibition %, planktonic cells turbidity
[3] = 10 µM, read-out: Average inhibition %, biofilms biomass
[4] = 10 µM, read-out: Average inhibition %, planktonic cells turbidity
[5] = 15 µM, read-out: Average inhibition %, biofilms biomass
[6] = 15 µM, read-out: Average inhibition %, planktonic cells turbidity
[7] = 25 µM, read-out: Average inhibition %, biofilms biomass
[8] = 25 µM, read-out: Average inhibition %, planktonic cells turbidity

CCCCCCCCc1ccc2nc(CCC(N)(CO)CO)ccc2c1 [Compound 80, 2-Amino-2-[2-(6-octylquinolin-2-yl)ethyl]propane-1,3-diol] was tested, and the “Average inhibition %, biofilms viability” value (S. aureus ATCC 12598; 5 µM) was 24.6 ± 6.8%, the “Average inhibition %, planktonic cells viability” value (S. aureus ATCC 12598; 5 µM) was 7.3 ± 12.6% and the “Average inhibition %, biofilms viability” value (S. aureus ATCC 12598; 10 µM) was 99.2 ± 0.3%. The “Average inhibition %, planktonic cells viability” value (S. aureus ATCC 12598; 10 µM) was 99.7 ± 0%, the “Average inhibition %, biofilms viability” value (S. aureus ATCC 12598; 15 µM) was 99.5 ± 0.1% and the “Average inhibition %, planktonic cells viability” value (S. aureus ATCC 12598; 15 µM) was 99.6 ± 0%. For the same molecule, the “Average inhibition %, biofilms viability” value (S. aureus ATCC 12598; 25 µM) was 99.5 ± 0.2%, the “Average inhibition %, planktonic cells viability” value (S. aureus ATCC 12598; 25 µM) was 99.6 ± 0% and the inhibition at 5 µM (S. aureus ATCC 12598; [1]) was 34.3 ± 18.8%. For the same molecule, the inhibition at 5 µM (S. aureus ATCC 12598; [2]) was 22.7 ± 5.4%, the inhibition at 10 µM (S. aureus ATCC 12598; [3]) was 96.5 ± 1% and the inhibition at 10 µM (S. aureus ATCC 12598; [4]) was 99.6%. The inhibition at 15 µM (S. aureus ATCC 12598; [5]) was 93.4 ± 1.2%, the inhibition at 15 µM (S. aureus ATCC 12598; [6]) was 99.5 ± 0.1% and the inhibition at 25 µM (S. aureus ATCC 12598; [7]) was 89.4 ± 0.6%. The inhibition at 25 µM (S. aureus ATCC 12598; [8]) was 98.9 ± 0.3%, the MIC (S. aureus ATCC 12598) was 10 µM (≈ 3.59 µg/mL) and the “Average inhibition %, biofilms viability” value (S. aureus P2; 5 µM) was 45.2 ± 2.1%. For the same molecule, the “Average inhibition %, planktonic cells viability” value (S. aureus P2; 5 µM) was 20.6 ± 21.6%, the “Average inhibition %, biofilms viability” value (S. aureus P2; 10 µM) was 99.5 ± 0.1% and the “Average inhibition %, planktonic cells viability” value (S. aureus P2; 10 µM) was 99.7 ± 0.2%. For the same molecule, the “Average inhibition %, biofilms viability” value (S. aureus P2; 15 µM) was 99.5 ± 0%, the “Average inhibition %, planktonic cells viability” value (S. aureus P2; 15 µM) was 99.6 ± 0.1% and the “Average inhibition %, biofilms viability” value (S. aureus P2; 25 µM) was 99.5 ± 0%. The “Average inhibition %, planktonic cells viability” value (S. aureus P2; 25 µM) was 99.5 ± 0.1%, the MIC (S. aureus P2) was 10 µM (≈ 3.59 µg/mL) and the inhibition at 5 µM (S. aureus P2; [1]) was 57.3 ± 10.2%. It also gave an inhibition at 5 µM (S. aureus P2; [2]) of 3.3 ± 5.4%, an inhibition at 10 µM (S. aureus P2; [3]) of 95.4 ± 2.9% and an inhibition at 10 µM (S. aureus P2; [4]) of 99.6 ± 0.1%. The inhibition at 15 µM (S. aureus P2; [5]) was 95.3 ± 0.8%, the inhibition at 15 µM (S. aureus P2; [6]) was 99.3% and the inhibition at 25 µM (S. aureus P2; [7]) was 90.6 ± 1%. The inhibition at 25 µM (S. aureus P2; [8]) was 98.8 ± 0.2%.

In the case of CCCCCCCCCCc1ccc2nc(CCC(N)(CO)CO)ccc2c1 [Compound 81, 2-Amino-2-[2-(6-decylquinolin-2-yl)ethyl]propane-1,3-diol], the “Average inhibition %, biofilms viability” value (S. aureus ATCC 12598; 5 µM) is reported as 15.6 ± 9.7%, the “Average inhibition %, planktonic cells viability” value (S. aureus ATCC 12598; 5 µM) is reported as 4.2 ± 7.3% and the “Average inhibition %, biofilms viability” value (S. aureus ATCC 12598; 10 µM) is reported as 99.4 ± 0%. For the same molecule, the “Average inhibition %, planktonic cells viability” value (S. aureus ATCC 12598; 10 µM) was 99.7 ± 0%, the “Average inhibition %, biofilms viability” value (S. aureus ATCC 12598; 15 µM) was 99.7 ± 0.1% and the “Average inhibition %, planktonic cells viability” value (S. aureus ATCC 12598; 15 µM) was 99.8 ± 0.1%. The “Average inhibition %, biofilms viability” value (S. aureus ATCC 12598; 25 µM) was 99.7 ± 0.1%, the “Average inhibition %, planktonic cells viability” value (S. aureus ATCC 12598; 25 µM) was 99.6 ± 0.1% and the inhibition at 5 µM (S. aureus ATCC 12598; [1]) was 19.1 ± 26.4%. For the same molecule, the inhibition at 5 µM (S. aureus ATCC 12598; [2]) was 2.1 ± 3.7%, the inhibition at 10 µM (S. aureus ATCC 12598; [3]) was 96 ± 0.6% and the inhibition at 10 µM (S. aureus ATCC 12598; [4]) was 99.8 ± 0.1%. For the same molecule, the inhibition at 15 µM (S. aureus ATCC 12598; [5]) was 93.5 ± 1.8%, the inhibition at 15 µM (S. aureus ATCC 12598; [6]) was 99.7 ± 0.1% and the inhibition at 25 µM (S. aureus ATCC 12598; [7]) was 88.7 ± 2%. The inhibition at 25 µM (S. aureus ATCC 12598; [8]) was 99.3 ± 0.2%, the “Average inhibition %, biofilms viability” value (S. aureus P2; 5 µM) was 37.3 ± 3.3% and the “Average inhibition %, planktonic cells viability” value (S. aureus P2; 5 µM) was 42.9 ± 19.7%. For the same molecule, the “Average inhibition %, biofilms viability” value (S. aureus P2; 10 µM) was 99.6 ± 0.1%, the “Average inhibition %, planktonic cells viability” value (S. aureus P2; 10 µM) was 99.6 ± 0.2% and the “Average inhibition %, biofilms viability” value (S. aureus P2; 15 µM) was 99.6 ± 0%. For the same molecule, the “Average inhibition %, planktonic cells viability” value (S. aureus P2; 15 µM) was 99.6 ± 0.1%, the “Average inhibition %, biofilms viability” value (S. aureus P2; 25 µM) was 99.6 ± 0% and the “Average inhibition %, planktonic cells viability” value (S. aureus P2; 25 µM) was 99.6 ± 0.2%. For the same molecule, the inhibition at 5 µM (S. aureus P2; [1]) was 48.4 ± 15.7%, the inhibition at 5 µM (S. aureus P2; [2]) was 0% and the inhibition at 10 µM (S. aureus P2; [3]) was 96.6 ± 0.4%. It also gave an inhibition at 10 µM (S. aureus P2; [4]) of 99.8 ± 0.1%, an inhibition at 15 µM (S. aureus P2; [5]) of 94.5 ± 0.6% and an inhibition at 15 µM (S. aureus P2; [6]) of 99.7 ± 0.1%. For the same molecule, the inhibition at 25 µM (S. aureus P2; [7]) was 89.1 ± 0.6% and the inhibition at 25 µM (S. aureus P2; [8]) was 99.2 ± 0.2%.

In the case of CCCCCCCCCCc1ccc2nc(CC(N)(CO)CO)ccc2c1 [Compound 83, 2-Amino-2-[(6-decylquinolin-2-yl)methyl]propane-1,3-diol], the MIC (S. aureus ATCC 12598) is reported as 10 µM (≈ 3.73 µg/mL) and the MIC (S. aureus P2) is reported as 10 µM (≈ 3.73 µg/mL).

From article PMC8296573, “Synthesis and Biological Evaluation of Fingolimod Derivatives as Antibacterial Agents” (ACS Omega, 2021)
